From patent US20210038607A1, “OXADIAZOLYLTHIOPHENE DERIVATIVES USEFUL AS HISTONE DEACETYLASE INHIBITORS” (Karus Therapeutics Limited, priority 2018, published 2021) come the findings set out here.

The target in one assay is T1, Human HDAC1 (Homo sapiens, UniProt Q13547).
T1 construct: full length with C-terminal His-tag and C-terminal FLAG-tag; His (C); FLAG (C); host or cells: baculovirus expression system
Briefly: HDAC1 biochemical assay, AMC-labeled peptide substrate. Particulars: read-out: HDAC Isoform IC50 (nM) 1. As to the method:
(§1) Activity against all zinc-dependent HDACs 1 to 11 was assessed by using an acetylated AMC-labeled peptide substrate. The substrate RHKK(Ac)AMC was used for HDAC1, HDAC2, HDAC3, HDAC6 and HDAC10; the substrate used for HDAC8 was RHK(Ac)K(Ac)AMC. Activity against the class IIa HDACs (HDAC4, 5, 7, 9) and HDAC11 was determined using a class IIa-specific substrate, BOC-Lys(trifluoroacetyl)-AMC (“Trifluoroacetyl Lysine”; see Lahm et al, 2007, PNAS, 104, 17335-17340). All assays were based on the AMC-labeled substrate and developer combination.
(§2) The protocol involved a two-step reaction: first, the substrate with the acetylated lysine side chain is incubated with a sample containing HDAC activity, to produce the deacetylated products, which are then digested in the second step by the addition of developer to produce the fluorescent signal proportional to the amount of deacetylated substrates.
Human HDAC1 (GenBank Accession No. NM_004964), full length with C-terminal His-tag and C-terminal FLAG-tag, MW=56 kDa, expressed in baculovirus expression system.
(§3) Assay Buffer: 50 mM Tris-HCl, pH8.0, 137 mM NaCl, 2.7 mM KCl, 1 mM MgC2. Before use, 1 mg/mL BSA and DMSO are added.
HDAC1: 0.3 ng/ul HDAC1 and 50 μM HDAC substrate are in the reaction buffer with 1% DMSO final. Incubate for 1 hour at 30° C.
(§4) Stage 1: Deacetylation of substrate by incubation of HDAC enzymes with compounds
(§5) Stage 2: Development by addition of Developer to digest the deacetylated substrate, and generate the fluorescent colour; Detection: 360/460 Ex/Em

In another assay the target is T2, Human HDAC5 (Homo sapiens, UniProt Q9UQL6).
T2 construct: full length with C-terminal His tag, MW=51.1 kDa; His (C); host or cells: baculovirus expression system
The assay is described as follows: HDAC5 biochemical assay, class IIa-specific substrate. Particulars: read-out: HDAC Isoform IC50 (nM) 5. As to the method:
as §1, §2
Human HDAC5 (GenBank Accession No. NM_005474), full length with C-terminal His tag, MW=51.1 kDa, expressed in baculovirus expression system.
as §3
(§6) For class IIa HDACs, assay buffer is the same.
HDAC5: 0.05 ng/ul HDAC5 and 50 μM Class IIa HDAC substrate are in the reaction buffer with 1% DMSO final. Incubate for 30 minutes at room temperature.
as §4, §5

Another assay concerns the target T3, Human HDAC7 (Homo sapiens, UniProt Q8WUI4).
T3 construct: (a.a. 518-end) with N-terminal GST tag; GST (N); host or cells: baculovirus expression system
T3 sequence (Q8WUI4 518-952 limits assumed): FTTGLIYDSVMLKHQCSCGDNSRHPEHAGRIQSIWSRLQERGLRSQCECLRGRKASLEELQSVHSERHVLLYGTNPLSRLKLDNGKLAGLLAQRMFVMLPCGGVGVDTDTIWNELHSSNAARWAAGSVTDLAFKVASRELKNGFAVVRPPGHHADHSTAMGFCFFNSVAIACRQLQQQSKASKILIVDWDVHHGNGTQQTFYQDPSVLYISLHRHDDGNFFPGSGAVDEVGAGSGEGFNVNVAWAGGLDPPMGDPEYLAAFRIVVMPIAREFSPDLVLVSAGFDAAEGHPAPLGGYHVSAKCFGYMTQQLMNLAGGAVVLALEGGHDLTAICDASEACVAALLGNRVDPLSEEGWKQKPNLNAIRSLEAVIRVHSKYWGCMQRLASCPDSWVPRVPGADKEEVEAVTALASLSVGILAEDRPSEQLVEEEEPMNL
Briefly: HDAC7 biochemical assay, class IIa-specific substrate. Conditions: read-out: HDAC Isoform IC50 (nM) 7. As to the method:
as §1, §2
Human HDAC7 (GenBank Accession No. AY302468), (a.a. 518-end) with N-terminal GST tag, MW=78 kDa, expressed in baculovirus expression system.
as §3, §6
HDAC7: 0.001 ng/ul HDAC7 and 50 μM Class IIa HDAC substrate are in the reaction buffer with 1% DMSO final. Incubate for 30 minutes at room temperature.
as §4, §5

Another assay has as its target T4, Human HDAC4 (Homo sapiens, UniProt P56524).
T4 construct: amino acids 627-1085 with N-terminal GST tag; GST (N); host or cells: baculovirus expression system
The assay is described as follows: HDAC4 biochemical assay, class IIa-specific substrate. Conditions: read-out: HDAC Isoform IC50 (nM) 4. As to the method: as §1, §2
Human HDAC4 (GenBank Accession No. NM_006037), amino acids 627-1085 with N-terminal GST tag, MW=75.2 kDa, expressed in baculovirus expression system.
as §3, §6
HDAC4: 0.004 ng/ul HDAC4 and 50 μM Class IIa HDAC substrate are in the reaction buffer with 1% DMSO final. Incubate for 30 minutes at room temperature.
as §4, §5

Another assay concerns the target T5, Recombinant human HDAC6 (Homo sapiens, UniProt Q9UBN7).
T5 construct: full length, MW=159 kDa; GST (N); host or cells: Sf9 insect cells (baculovirus)
T5 sequence (Q9UBN7 1-1215): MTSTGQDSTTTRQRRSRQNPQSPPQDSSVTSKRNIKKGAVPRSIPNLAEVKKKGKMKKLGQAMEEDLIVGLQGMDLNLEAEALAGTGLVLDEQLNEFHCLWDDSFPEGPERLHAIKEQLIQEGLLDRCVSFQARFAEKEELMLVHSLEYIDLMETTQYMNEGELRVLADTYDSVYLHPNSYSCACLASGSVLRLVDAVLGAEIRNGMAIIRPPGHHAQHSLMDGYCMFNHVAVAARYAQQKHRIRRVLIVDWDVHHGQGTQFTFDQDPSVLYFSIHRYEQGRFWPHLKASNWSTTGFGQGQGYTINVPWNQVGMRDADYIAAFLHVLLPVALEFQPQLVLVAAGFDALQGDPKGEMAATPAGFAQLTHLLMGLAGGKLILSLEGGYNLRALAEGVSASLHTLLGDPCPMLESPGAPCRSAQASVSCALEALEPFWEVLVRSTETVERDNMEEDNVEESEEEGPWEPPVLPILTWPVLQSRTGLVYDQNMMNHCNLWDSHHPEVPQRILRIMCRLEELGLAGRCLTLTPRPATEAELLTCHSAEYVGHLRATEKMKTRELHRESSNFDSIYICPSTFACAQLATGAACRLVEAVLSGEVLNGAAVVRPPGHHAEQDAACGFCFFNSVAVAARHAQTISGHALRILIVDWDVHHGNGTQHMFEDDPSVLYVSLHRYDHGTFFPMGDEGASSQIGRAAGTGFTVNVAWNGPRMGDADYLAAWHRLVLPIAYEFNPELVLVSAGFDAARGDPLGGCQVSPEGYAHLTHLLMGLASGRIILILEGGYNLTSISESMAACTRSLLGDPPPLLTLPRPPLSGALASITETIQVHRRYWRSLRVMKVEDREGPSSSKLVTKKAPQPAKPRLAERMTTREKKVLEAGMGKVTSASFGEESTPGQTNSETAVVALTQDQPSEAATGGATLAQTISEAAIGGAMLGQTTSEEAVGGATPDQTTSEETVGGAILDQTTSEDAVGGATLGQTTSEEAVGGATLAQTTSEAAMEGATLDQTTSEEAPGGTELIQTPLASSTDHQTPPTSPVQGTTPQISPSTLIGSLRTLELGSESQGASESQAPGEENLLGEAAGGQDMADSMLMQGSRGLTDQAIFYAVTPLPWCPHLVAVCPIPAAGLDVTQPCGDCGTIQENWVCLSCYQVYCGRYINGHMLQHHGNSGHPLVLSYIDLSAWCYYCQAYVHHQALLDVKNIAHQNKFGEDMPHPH
The assay is described as follows: HDAC6 biochemical assay, AMC-labeled peptide substrate. Particulars: HDAC6; read-out: HDAC Isoform IC50 (nM) 6. As for the experimental part: as §1, §2
Recombinant human HDAC6 (GenBank Accession No. BC069243), full length, MW=159 kDa, was expressed by baculovirus in Sf9 insect cells using an N-terminal GST tag.
as §3
HDAC6: 0.3 ng/ul HDAC6 and 50 μM HDAC substrate are in the reaction buffer with 1% DMSO final. Incubate for 1 hours at 30° C.
as §4, §5

For another assay, the target named is T6, Human HDAC9 (Homo sapiens, UniProt Q9UKV0).
T6 construct: amino acids 604-1066 with C-terminal His tag; His (C); host or cells: baculovirus expression system
The assay is described as follows: HDAC9 biochemical assay, class IIa-specific substrate. Particulars: read-out: HDAC Isoform IC50 (nM) 9. As to the method:
as §1, §2
Human HDAC9 (GenBank Accession No. NM_178423), amino acids 604-1066 with C-terminal His tag, MW=50.7 kDa, expressed in baculovirus expression system.
as §3, §6
HDAC9: 0.06 ng/ul HDAC9 and 50 μM Class IIa HDAC substrate are in the reaction buffer with 1% DMSO final. Incubate for 30 minutes at room temperature.
as §4, §5

T1 sequence (Q13547 whole entry): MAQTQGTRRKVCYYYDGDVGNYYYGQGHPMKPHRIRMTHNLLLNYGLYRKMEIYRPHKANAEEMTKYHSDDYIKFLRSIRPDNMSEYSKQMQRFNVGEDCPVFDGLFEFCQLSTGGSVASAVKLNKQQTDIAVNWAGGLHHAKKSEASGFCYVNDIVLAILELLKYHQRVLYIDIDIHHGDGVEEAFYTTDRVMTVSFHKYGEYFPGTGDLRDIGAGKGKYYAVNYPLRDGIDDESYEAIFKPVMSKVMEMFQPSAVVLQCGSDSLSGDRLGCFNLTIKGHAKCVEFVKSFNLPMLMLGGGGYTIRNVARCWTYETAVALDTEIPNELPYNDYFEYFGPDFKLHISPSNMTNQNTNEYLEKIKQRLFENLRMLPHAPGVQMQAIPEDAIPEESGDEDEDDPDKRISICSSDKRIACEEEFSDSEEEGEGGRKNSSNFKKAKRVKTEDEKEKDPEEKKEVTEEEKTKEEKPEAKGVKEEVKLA
T2 sequence (Q9UQL6 656-1122 limits assumed): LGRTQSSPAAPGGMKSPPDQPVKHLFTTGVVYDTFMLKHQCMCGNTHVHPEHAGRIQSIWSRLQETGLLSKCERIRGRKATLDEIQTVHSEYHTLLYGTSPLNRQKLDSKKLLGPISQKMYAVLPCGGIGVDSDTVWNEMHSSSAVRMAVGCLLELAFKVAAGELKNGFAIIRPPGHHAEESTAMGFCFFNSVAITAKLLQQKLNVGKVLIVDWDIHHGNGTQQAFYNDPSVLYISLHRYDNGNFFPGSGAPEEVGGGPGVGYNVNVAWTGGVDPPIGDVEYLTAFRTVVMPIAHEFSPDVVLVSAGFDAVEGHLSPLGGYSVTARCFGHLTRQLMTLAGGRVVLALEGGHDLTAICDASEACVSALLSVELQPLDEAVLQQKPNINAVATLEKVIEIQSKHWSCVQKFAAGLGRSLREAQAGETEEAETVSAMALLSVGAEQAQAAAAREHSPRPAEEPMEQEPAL
T6 sequence (Q9UKV0 604-1066 isoform Q9UKV0-5): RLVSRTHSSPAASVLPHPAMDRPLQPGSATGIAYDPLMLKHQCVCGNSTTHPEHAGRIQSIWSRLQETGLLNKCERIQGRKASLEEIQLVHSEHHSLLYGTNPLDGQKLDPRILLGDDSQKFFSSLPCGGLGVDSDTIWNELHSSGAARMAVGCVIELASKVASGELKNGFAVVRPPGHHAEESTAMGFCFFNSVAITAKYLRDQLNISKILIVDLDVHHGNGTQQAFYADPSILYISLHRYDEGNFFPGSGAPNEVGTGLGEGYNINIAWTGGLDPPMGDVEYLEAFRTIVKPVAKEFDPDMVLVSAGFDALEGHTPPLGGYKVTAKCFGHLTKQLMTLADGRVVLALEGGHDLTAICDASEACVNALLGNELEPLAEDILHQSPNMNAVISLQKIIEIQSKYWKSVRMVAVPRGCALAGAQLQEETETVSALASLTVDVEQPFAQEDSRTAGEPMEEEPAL
T4 sequence (P56524 627-1084 limits assumed): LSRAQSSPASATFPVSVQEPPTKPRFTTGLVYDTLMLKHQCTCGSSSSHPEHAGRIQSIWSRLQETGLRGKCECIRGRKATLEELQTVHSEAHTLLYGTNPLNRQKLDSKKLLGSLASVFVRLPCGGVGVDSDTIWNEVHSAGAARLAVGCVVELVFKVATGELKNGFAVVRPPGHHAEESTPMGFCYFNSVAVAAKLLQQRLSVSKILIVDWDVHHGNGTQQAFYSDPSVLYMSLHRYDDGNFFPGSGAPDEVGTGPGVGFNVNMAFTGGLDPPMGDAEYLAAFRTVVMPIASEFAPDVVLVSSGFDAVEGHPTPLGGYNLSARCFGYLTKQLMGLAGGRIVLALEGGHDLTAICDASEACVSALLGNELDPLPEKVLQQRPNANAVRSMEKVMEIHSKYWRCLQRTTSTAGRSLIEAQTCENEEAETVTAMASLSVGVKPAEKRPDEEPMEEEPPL

On to `FC(F)(F)c1nc(-c2ccc(CN(c3cnccn3)c3nccc4ncccc34)s2)no1` [Example AJ, N-(Pyrazin-2-yl)-N-({5-[5-(trifluoromethyl)-1,2,4-oxadiazol-3-yl]thiophen-2-yl}methyl)-1,6-naphthyridin-5-amine], for which the 50% inhibitory concentration (IC50) is > 10000 nM on Human HDAC1; ≤ 10000 nM at Human HDAC5; ≤ 10000 nM at Human HDAC7; ≤ 10000 nM at Human HDAC4; ≤ 10000 nM at Recombinant human HDAC6; ≤ 10000 nM on Human HDAC9.

Regarding `FC(F)(F)c1nc(-c2ccc(CN(c3cnccn3)c3nccc4cnccc34)s2)no1` [Example AK, N-(Pyrazin-2-yl)-N-({5-[5-(trifluoromethyl)-1,2,4-oxadiazol-3-yl]thiophen-2-yl}methyl)-2,6-naphthyridin-1-amine], the half-inhibitory concentration (IC50) is > 10000 nM at Human HDAC1; ≤ 500 nM at Human HDAC5; ≤ 500 nM at Human HDAC7; ≤ 500 nM on Human HDAC4; ≤ 1000 nM at Recombinant human HDAC6; ≤ 500 nM on Human HDAC9.

In the case of `FC(F)(F)c1nc(-c2ccc(CN(c3cnccn3)c3nccc4nccnc34)s2)no1` [Example AL, N-{Pyrido[3,4-b]pyrazin-5-yl}-N-({5-[5-(trifluoromethyl)-1,2,4-oxadiazol-3-yl]thiophen-2-yl}methyl)pyrazin-2-amine], the IC50 at Human HDAC1 is > 10000 nM; at Human HDAC5, ≤ 10000 nM; at Human HDAC7, ≤ 10000 nM; at Human HDAC4, ≤ 10000 nM; at Recombinant human HDAC6, ≤ 10000 nM; on Human HDAC9, ≤ 10000 nM.

As to `FC(F)(F)c1nc(-c2ccc(CN(c3cnccn3)c3ncccc3C3CC3)s2)no1` [Example AM, N-(3-Cyclopropylpyridin-2-yl)-N-({5-[5-(trifluoromethyl)-1,2,4-oxadiazol-3-yl]thiophen-2-yl}methyl)pyrazin-2-amine], the IC50 on Human HDAC1 was > 10000 nM; on Human HDAC5 it was ≤ 500 nM; on Human HDAC7, ≤ 1000 nM; at Human HDAC4, ≤ 500 nM; on Recombinant human HDAC6, ≤ 10000 nM; at Human HDAC9, ≤ 10000 nM.

With `FC(F)(F)c1nc(-c2ccc(CN(c3cnccn3)c3ncccc3N3CCOCC3)s2)no1` [Example AN, N-[3-(Morpholin-4-yl)pyridin-2-yl]-N-({5-[5-(trifluoromethyl)-1,2,4-oxadiazol-3-yl]thiophen-2-yl}methyl)pyrazin-2-amine], the concentration for half-maximal inhibition (IC50) at Human HDAC1 is > 10000 nM; on Human HDAC5 it was ≤ 10000 nM; on Human HDAC7, ≤ 10000 nM; at Human HDAC4, ≤ 10000 nM; at Recombinant human HDAC6, ≤ 1000 nM; at Human HDAC9 it was ≤ 10000 nM.

For `FC(F)(F)c1nc(-c2ccc(CN(c3cccnc3)c3cnccn3)s2)no1` [Example AO, N-(Pyridin-3-yl)-N-({5-[5-(trifluoromethyl)-1,2,4-oxadiazol-3-yl]thiophen-2-yl}methyl)pyrazin-2-amine], the IC50 is > 10000 nM on Human HDAC1; ≤ 500 nM at Human HDAC5; ≤ 500 nM at Human HDAC7; ≤ 500 nM on Human HDAC4; ≤ 500 nM on Recombinant human HDAC6; ≤ 1000 nM on Human HDAC9.

`FC(F)(F)c1nc(-c2ccc(CN(c3ccc(N4CCCC4)nc3)c3cnccn3)s2)no1` [Example AP, N-[6-(Pyrrolidin-1-yl)pyridin-3-yl]-N-({5-[5-(trifluoromethyl)-1,2,4-oxadiazol-3-yl]thiophen-2-yl}methyl)pyrazin-2-amine]: the IC50 at Human HDAC1 was > 10000 nM; on Human HDAC5, ≤ 10000 nM; at Human HDAC7, ≤ 10000 nM; at Human HDAC4, ≤ 10000 nM; on Recombinant human HDAC6, > 10000 nM; at Human HDAC9, ≤ 10000 nM.

In the case of `FC(F)(F)c1cncc(N(Cc2ccc(-c3noc(C(F)(F)F)n3)s2)c2cnccn2)c1` [Example AQ, N-({5-[5-(Trifluoromethyl)-1,2,4-oxadiazol-3-yl]thiophen-2-yl}methyl)-N-[5-(trifluoromethyl)pyridin-3-yl]pyrazin-2-amine], the IC50 was > 10000 nM at Human HDAC1; ≤ 1000 nM at Human HDAC5; ≤ 10000 nM at Human HDAC7; ≤ 10000 nM on Human HDAC4; ≤ 10000 nM at Recombinant human HDAC6; ≤ 10000 nM at Human HDAC9.
